Test results published in patent US10173999B2, “Cyclic amine derivative and pharmaceutical use thereof” (Toray Industries, Inc., priority 2015, dated 2019).
Entries after “also recorded” stand apart in the source; their conditions may differ. Where a name gives a salt, the structure may show the parent alone.

How the values were obtained:
[1] = Stability test in monkey liver microsomes; format: in vitro ADME; details: pH 7.4; monkey liver microsomes 0.5 mg/mL, test compound 2 μmol/L, 37° C., 0-30 min; read-out: Hepatic intrinsic clearance, Monkey
Experimental: Experiment was performed using the compound of Example 11, Comparative Example 1 or Comparative Example 6 as a test compound and human liver microsomes (from Xenotech), monkey liver microsomes (from Xenotech), dog liver microsomes (from Xenotech) or mouse liver microsomes (from Xenotech) as the liver microsomes.
The reagents to be used in the stability test in liver microsomes were prepared as follows. A D-glucose 6-phosphate disodium salt (hereinafter referred to as G6P) was dissolved with distilled water to prepare an aqueous solution of G6P (100 mmol/L). Glucose 6-phosphate dehydrogenase (1000 units) from Yeast (hereinafter referred to as G6PDH) was dissolved with distilled water (5 mL) to prepare an aqueous solution of G6PDH (200 units/mL). MgCl2 was dissolved with distilled water to prepare an aqueous solution of MgCl2 (100 mmol/L). […]
With respect to the chromatogram of each well obtained by LC/MS analysis or LC/MS/MS analysis, the test compound residual ratio (%) at each reaction time t (min) was calculated based on the peak area at the reaction time of 0 minute as 100%. […]

[2] = system: human aortic smooth muscle cells (T/G HA-VSMG); assay: Inducibility of cytoplasmic vacuolation in human aortic smooth muscle cells; format: cell-based; details: Concentration: 1.0 mmol/L
Experimental: As a test compound, the compound of Example 3, 9, 11, 12 or compounds of Comparative Examples 2 to 6 were used. Canine aortic smooth muscle cells (Canine Aortic Smooth Muscle Cells, supply source: Toyobo Co., Ltd.) or human aortic smooth muscle cells of (T/G HA-VSMG, supply source: ATCC) were treated with a test compound (1.0 or 1.2 mmol/L in concentration) for 24 hours or 2 weeks. The cells were stained with HE, immunohistochemically for LAMP-2 or toluidine blue, and thereafter the presence or absence of cytoplasmic vacuolation was determined by using an optical microscope.

Structure (SMILES) | microsomal CLint at 2 μmol/L [1] [µL/min/mg] | Inducibility of cytoplasmic vacuolation ([2]; Treatment time: 2 weeks) | Inducibility of cytoplasmic vacuolation ([2]; Treatment time: 24 hours)
CN(C)C1CCN(C(=O)CCc2nccn2C)CC1 [Comparative Example 1, 1-(4-(dimethylamino)piperidin-1-yl)-3-(1-methyl-1H-imidazol-2-yl)propan-1-one hydrochloride] | 2 | – | –
CC(C)n1ccnc1CCC(=O)N1CCC(N(C)C)CC1 [Comparative Example 6, 1-(4-(dimethylamino)piperidin-1-yl)-3-(1-isopropyl-1H-imidazol-2-yl)propan-1-one hydrochloride] | 6 | – | –
CN(C)C1CCN(C(=O)C[C@H](O)c2nccn2C)CC1 [Example 11, (S)-1-(4-(dimethylamino)piperidin-1-yl)-3-hydroxy-3-(1-methyl-1H-imidazol-2-yl)propan-1-one] | – | not observed; also recorded: Absent | Absent
